Like-named read-outs stand apart in the source and are kept apart here.
Assays:
PC-3 cells = assay: Cell viability analysis (MTT) in PC-3 cells; format: cell-based; conditions: Homo sapiens, PC-3, PC-3 cells, read-out: IC50 (μM) PC3
Method: Cell viability analysis. The effect of individual test agents on cell viability was assessed by using the MTT {[3-(4,5-dimethylthiazol-2-yl)-2,5-diphenyl-2H-tetrazolium bromide]} assay in six to twelve replicates. […] Controls received DMSO vehicle at a concentration equal to that in drug-treated cells. […] Supernatants were removed from the wells, and the reduced MTT dye was solubilized in 200 μl/well DMSO. Absorbance at 570 nm was determined on a plate reader.
(§1) Determination of IC50 values. Data from cell viability and FP assays were analyzed by using the CalcuSyn software (Biosoft, Ferguson, Mo.) to determine IC50 values, in which the calculation was based on the medium effect equation (18), i.e., Log(fa/fu)=m log(D)−m log(Dm) (equation 1), where fa and fu denote fraction affected and unaffected, respectively; m represents the Hill-type coefficient signifying the sigmoidicity of the dose-effect curve; D and Dm are the dose used and IC50, respectively.

[1] = WB (IC50 for WB, Tables 1-9); format: cell-based; conditions: marker, cell line and unit inferred
Method: Immunoblotting. Cells in T-75 flasks were collected by scraping, and suspended in 60 μl of phosphate-buffered saline (PBS). Two μl of the suspension was taken for protein analysis using the Bradford assay kit (Bio-Rad, Hercules, Calif.). To the remaining solution was added the same volume of 2×SDS-PAGE sample loading buffer (100 mM Tris-HCl, pH 6.8, 4% SDS, 5% β-mercaptoethanol 20% glycerol, and 0.1% bromophenol blue). The mixture was sonicated briefly, and boiled for 5 min. Equal amounts of proteins were loaded onto 10% SDS-PAGE gels.
After electrophoresis, protein bands were transferred to nitrocellulose membranes in a semidry transfer cell. The transblotted membrane was washed twice with Tris-buffered saline (TBS) containing 0.1% Tween 20 (TBST). After blocking with TBST containing 5% nonfat milk for 40 min, the membrane was incubated with the appropriate primary antibody in TBST-1% nonfat milk at 4° C. overnight. All primary antibodies were diluted 1:1000 in 1% nonfat milk-containing TBST. After treatment with the primary antibody, the membrane was washed three times with TBST for a total of 15 min, followed by incubation with goat anti-rabbit or anti-mouse IgG-horseradish peroxidase conjugates (diluted 1:5000) for 1 h at room temperature and three washes with TBST for a total of 1 h. The immunoblots were visualized by enhanced chemiluminescence.

Bcl-xL = target: T1, Bcl-xL (Homo sapiens, UniProt Q07817); assay: Competitive fluorescence polarization assay, displacement of Flu-BakBH3 peptide from Bcl-xL; format: binding
T1 construct: fused on or other part: His tag
T1 sequence (Q07817 1-209 limits assumed): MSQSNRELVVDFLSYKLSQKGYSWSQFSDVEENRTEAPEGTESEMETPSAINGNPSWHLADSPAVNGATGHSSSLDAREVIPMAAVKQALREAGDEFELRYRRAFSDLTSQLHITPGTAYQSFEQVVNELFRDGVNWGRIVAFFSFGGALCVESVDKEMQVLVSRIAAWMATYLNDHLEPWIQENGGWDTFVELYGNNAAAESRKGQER
Method: (§2) Competitive Fluorescence Polarization Assay. The binding affinity of the test agent to Bcl-2 and Bcl-xL was analyzed by a competitive fluorescence polarization assay, in which the ability of the agent to displace the binding of a Bak BH3-domain peptide to either Bcl-2 or Bcl-xL was determined. Flu-BakBH3, a Bak-BH3 peptide labeled at the N-terminus with fluorescein, was purchased from Genemed Synthesis (San Francisco, Calif.). C-Terminal-truncated, His-tagged Bcl-xL was purchased from EMD Biosciences (San Diego, Calif.), and soluble GST-fused Bcl-2 was obtained from Santa Cruz (Santa Cruz, Calif.). The KD determination was carried out in a dual-pathlength quartz cell with readings taken at […] at room temperature using a luminescence spectrometer according to an established procedure (17). Determination of IC50 values. Data from cell viability and FP assays were analyzed by using the CalcuSyn software (Biosoft, Ferguson, Mo.) to determine IC50 values, in which the calculation was based on the medium effect equation (18), i.e., Log(fa/fu)=m log(D)−m log(Dm) (equation 1), where fa and fu denote fraction affected and unaffected, respectively; m represents the Hill-type coefficient signifying the sigmoidicity of the dose-effect curve; D and Dm are the dose used and IC50, respectively.

Bcl-2 = Bcl-2 (Homo sapiens, UniProt P10415); assay: Competitive fluorescence polarization assay, displacement of Flu-BakBH3 peptide from Bcl-2; format: binding
Chain of Bcl-2 (P10415 whole entry): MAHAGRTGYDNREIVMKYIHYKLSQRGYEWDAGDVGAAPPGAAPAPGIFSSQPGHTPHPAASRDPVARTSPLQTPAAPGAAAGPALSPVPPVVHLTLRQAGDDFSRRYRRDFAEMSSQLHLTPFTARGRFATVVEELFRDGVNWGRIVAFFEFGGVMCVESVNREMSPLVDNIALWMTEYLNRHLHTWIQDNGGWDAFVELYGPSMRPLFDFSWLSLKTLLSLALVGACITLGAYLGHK
Method: as §2

[2] = MTT assay (IC50 for MTT, Tables 1-9); format: cell-based; conditions: cell line and unit inferred
Method: Cell viability analysis. The effect of individual test agents on cell viability was assessed by using the MTT {[3-(4,5-dimethylthiazol-2-yl)-2,5-diphenyl-2H-tetrazolium bromide]} assay in six to twelve replicates. Cells were seeded and incubated in 96-well, flat-bottomed plates in serum-free media for 24 h, and were exposed to various concentrations of test agents dissolved in DMSO (final concentration, 0.1%) in serum-free RPMI 1640 medium for different time intervals. Controls received DMSO vehicle at a concentration equal to that in drug-treated cells. The medium was removed, replaced by 200 μl of 0.5 mg/ml of MTT in 10% FBS-containing RPMI-1640 medium, and cells were incubated in the CO2 incubator at 37° C. for 2 h. Supernatants were removed from the wells, and the reduced MTT dye was solubilized in 200 μl/well DMSO. Absorbance at 570 nm was determined on a plate reader.
as §1

[3] = inhibition of Bak BH3 peptide binding to Bcl-xL, FP, read-out: IC50 Bcl-xl/Bak
[4] = inhibition of Bak BH3 peptide binding to Bcl-2, FP, read-out: IC50 Bcl-2/Bak
[5] = unit inferred, read-out: IC50 for inhibiting BH3-mediated protein interactions (Bcl-xL)
[6] = unit inferred, read-out: IC50 for inhibiting BH3-mediated protein interactions (Bcl-2)

CC(C)=CCOc1c(C)c(C)c2c(c1C)CCC(C)(COc1ccc(C(O)C(C)(C)C(=O)O)cc1Br)O2 (stereo not drawn) [TG-39]
IC50 (PC-3 cells): 7 ± 0.4 µM
IC50 [1]: > 7.5 µM

COc1cc(/C=C2\SC(=O)NC2=O)cc(Br)c1OCC1(C)CCc2c(C)c(OCC=C(C)C)c(C)c(C)c2O1 (stereo not drawn) [TG-44]
IC50 (PC-3 cells): 5.1 ± 0.4 µM
IC50 [1]: > 7.5 µM

C=CCOc1c(C)c(C)c2c(c1C)CCC(C)(COc1c(Br)cc(/C=C3\SC(=O)NC3=O)cc1OC)O2 (stereo not drawn) [TG-54]
IC50 [1]: 3.8 µM

C=CCOc1c(C)c(C)c2c(c1C)CCC(C)(COc1ccc(/C=C3\SC(=O)NC3=O)cc1OC)O2 (stereo not drawn) [TG-28]
IC50 (PC-3 cells): 5.2 ± 0.5 µM
IC50 [1]: 2.3 µM
IC50 (Bcl-xL; [3]): 4 ± 0.3 µM
IC50 (Bcl-2; [4]): 4.4 ± 0.3 µM

CC(C)=CCOc1c(C)c(C)c2c(c1C)CCC(C)(COc1ccc(/C=C3\SC(=O)NC3=O)cc1-c1ccc(F)cc1)O2 (stereo not drawn) [TG-32]
IC50 (PC-3 cells): 5 ± 0.4 µM
IC50 [1]: > 7.5 µM
IC50 (Bcl-xL; [3]): 6.5 ± 0.5 µM
IC50 (Bcl-2; [4]): 6.6 ± 0.6 µM

O=C1NC(=O)/C(=C/c2ccc(OCC3CCc4ccccc4C3)cc2)S1 (stereo not drawn) [TG-15]
IC50 (PC-3 cells): 12 ± 0.9 µM
IC50 [1]: 3.8 µM
IC50 (Bcl-xL; [3]): 16 ± 0.5 µM
IC50 (Bcl-2; [4]): 18 ± 0.9 µM

Cc1c(C)c2c(c(C)c1OCc1ccccc1)CCC(C)(COc1ccc(/C=C3\SC(=O)NC3=O)cc1)O2 (stereo not drawn) [TG-12]
IC50 (PC-3 cells): 18 ± 1.3 µM
IC50 [1]: 3.6 µM
IC50 (Bcl-xL; [3]): 14 ± 1.1 µM
IC50 (Bcl-2; [4]): 18 ± 0.9 µM

C=CCOc1c(C)c(C)c2c(c1C)CCC(C)(COc1ccc(/C=C3\SC(=O)NC3=O)cc1OCC)O2 (stereo not drawn) [TG-55]
IC50 [1]: > 7.5 µM

C=CCOc1c(C)c(C)c2c(c1C)CCC(C)(COc1ccc(/C=C3\SC(=O)NC3=O)cc1C)O2 (stereo not drawn) [TG-29]
IC50 (PC-3 cells): 5.1 ± 0.4 µM
IC50 [1]: 3.6 µM
IC50 (Bcl-xL; [3]): 3 ± 0.3 µM
IC50 (Bcl-2; [4]): 3.5 ± 0.6 µM

Cc1c(C)c2c(c(C)c1OC/C=C/c1ccccc1)CCC(C)(COc1ccc(/C=C3\SC(=O)NC3=O)cc1Br)O2 (stereo not drawn) [TG-11]
IC50 (PC-3 cells): 6 ± 0.3 µM
IC50 [1]: > 7.5 µM
IC50 (Bcl-xL; [3]): 2.2 ± 0.2 µM
IC50 (Bcl-2; [4]): 3.1 ± 0.4 µM

CC(C)=CCOc1c(C)c(C)c2c(c1C)CCC(C)(COc1ccc(/C=C3\SC(=O)NC3=O)cc1F)O2 (stereo not drawn) [TG-30]
IC50 (PC-3 cells): 6 ± 0.4 µM
IC50 [1]: 7.2 µM
IC50 (Bcl-xL; [3]): 2.7 ± 0.3 µM
IC50 (Bcl-2; [4]): 3.4 ± 0.5 µM

C=CCOc1c(C)c(C)c2c(c1C)CCC(C)(COc1ccc(/C=C3\SC(=S)NC3=O)cc1)O2 (stereo not drawn) [TG-3]
IC50 (PC-3 cells): 10 ± 1.2 µM
IC50 (Bcl-xL; [3]): 4.8 ± 0.5 µM
IC50 (Bcl-2; [4]): 7.3 ± 0.3 µM

CC(C)=CCOc1c(C)c(C)c2c(c1C)CCC(C)(COc1ccc(/C=C3\SC(=S)NC3=O)cc1Br)O2 (stereo not drawn) [TG-89]
IC50 (PC-3 cells): 4.4 ± 0.4 µM

CC(C)=CCOc1c(C)c(C)c2c(c1C)CCC(C)(COc1ccc(/C=C3\SC(=O)NC3=O)cc1[N+](=O)[O-])O2 (stereo not drawn) [TG-35]
IC50 (PC-3 cells): > 50 µM
IC50 [1]: 2.7 µM

C=CCOc1c(C)c(C)c2c(c1C)CCC(C)(COc1cccc(/C=C3\SC(=O)NC3=O)c1)O2 (stereo not drawn) [TG-51]
IC50 (PC-3 cells): 6.8 ± 0.2 µM
IC50 [1]: 4.4 µM
IC50 [2]: 40 µM

CC(C)=CCOc1c(C)c(C)c2c(c1C)CCC(C)(COc1ccc(/C=C/C(=O)O)cc1Br)O2 (stereo not drawn) [TG-37]
IC50 (PC-3 cells): 6 ± 0.7 µM
IC50 [1]: > 7.5 µM

CC(C)=CCOc1c(C)c(C)c2c(c1C)CCC(C)(COc1ccc(/C=C3\SC(=O)NC3=O)cc1C)O2 (stereo not drawn) [TG-17]
IC50 (PC-3 cells): 4.8 ± 0.3 µM
IC50 [1]: 3.2 µM
IC50 (Bcl-xL; [3]): 2.6 ± 0.3 µM
IC50 (Bcl-2; [4]): 3.1 ± 0.4 µM

COc1cc(/C=C2\SC(=O)NC2=O)ccc1OCC1(C)CCc2c(C)c(OCC=C(C)C)c(C)c(C)c2O1 (stereo not drawn) [TG-16]
IC50 (PC-3 cells): 4.7 ± 0.2 µM
IC50 [1]: 5.6 µM
IC50 (Bcl-xL; [3]): 6.5 ± 0.5 µM
IC50 (Bcl-2; [4]): 4.8 ± 0.5 µM

C=CCOc1c(C)c(C)c2c(c1C)CCC(C)(COc1ccc(/C=C3\SC(=O)NC3=O)cc1Br)O2 (stereo not drawn) [TG-27]
IC50 (PC-3 cells): 5 ± 0.5 µM
IC50 [1]: > 7.5 µM
IC50 (Bcl-xL; [3]): 2.1 ± 0.2 µM
IC50 (Bcl-2; [4]): 2.7 ± 0.4 µM

CC(C)=CCOc1c(C)c(C)c2c(c1C)CCC(C)(COc1ccc(/C=C3\SC(=S)NC3=O)c3ccccc13)O2 (stereo not drawn) [TG-46]
IC50 (PC-3 cells): 5.3 ± 0.3 µM
IC50 [1]: 6.7 µM

CC(C)=CCOc1c(C)c(C)c2c(c1C)CCC(C)(COc1ccc(C=C(C(=O)O)C(=O)O)cc1Br)O2 (stereo not drawn) [TG-42]
IC50 (PC-3 cells): 16 ± 0.3 µM
IC50 [1]: > 7.5 µM
IC50 [2]: > 50 µM

CN(CCOc1ccc(C=C2SC(O)=NC2=O)cc1)c1ccccn1 [Δ2-RG, 5-{4-[2-(methyl-pyridin-2-yl-amino)-ethoxy]-benzylidene}-thiazolidine-2,4-dione]
IC50 (Bcl-xL; [5]): > 50 µM
IC50 (Bcl-2; [6]): > 50 µM

C=CCOc1c(C)c(C)c2c(c1C)CCC(C)(COc1ccc(/C=C3\SC(=O)NC3=O)c3ccccc13)O2 (stereo not drawn) [TG-53]
IC50 (PC-3 cells): 3.3 ± 0.3 µM
IC50 [1]: 3.4 µM

CC(C)=CCOc1c(C)c(C)c2c(c1C)CCC(C)(COc1c(Br)cc(/C=C3\SC(=O)NC3=O)cc1Br)O2 (stereo not drawn) [TG-34]
IC50 (PC-3 cells): 4.4 ± 0.4 µM
IC50 [1]: 2.7 µM
IC50 (Bcl-xL; [3]): 2 ± 0.2 µM
IC50 (Bcl-2; [4]): 2.8 ± 0.4 µM

C=CCOc1c(C)c(C)c2c(c1C)CCC(C)(COc1c(C)cc(/C=C3\SC(=O)NC3=O)cc1C)O2 (stereo not drawn) [TG-52]
IC50 (PC-3 cells): 4.5 ± 0.2 µM
IC50 [1]: 7.5 µM

CCOc1cc(/C=C2\SC(=O)NC2=O)ccc1OCC1(C)CCc2c(C)c(OCC=C(C)C)c(C)c(C)c2O1 (stereo not drawn) [TG-45]
IC50 (PC-3 cells): 4.6 ± 0.3 µM
IC50 [1]: 6.7 µM

CCc1ccc(CCOc2ccc(CC3SC(=O)NC3=O)cc2)nc1 (stereo not drawn) [PG, pioglitazone, reference compound]
IC50 (Bcl-xL; [5]): > 50 µM
IC50 (Bcl-2; [6]): > 50 µM

CN(CCOc1ccc(CC2SC(=O)NC2=O)cc1)c1ccccn1 (stereo not drawn) [RG, rosiglitazone, reference compound]
IC50 (Bcl-xL; [5]): > 50 µM
IC50 (Bcl-2; [6]): > 50 µM

CC(C)=CCOc1c(C)c(C)c2c(c1C)CCC(C)(COc1ccc(/C=C3\SC(=O)NC3=O)cc1)O2 (stereo not drawn) [TG-14]
IC50 (PC-3 cells): 9 ± 1 µM
IC50 [1]: 7 µM
IC50 (Bcl-xL; [3]): 4.5 ± 0.4 µM
IC50 (Bcl-2; [4]): 4.8 ± 0.4 µM

CC(C)=CCOc1c(C)c(C)c2c(c1C)CCC(C)(COc1ccc(/C=C3\SC(=O)NC3=O)c3ccccc13)O2 (stereo not drawn) [TG-43]
IC50 (PC-3 cells): 3 ± 0.2 µM
IC50 [1]: 7.2 µM

— US8309582B2, “Small molecule Bcl-Xl/Bcl-2 binding inhibitors” (The Ohio State University Research Foundation, priority 2004, dated 2012)
